For 21 molecules, viability and inhibition results are on record in patent US20260364068A1, “ANTIVIRAL USE OF HETEROARYL DERIVATIVE COMPOUND” (UIF (University Industry Foundation), Yonsei University, priority 2022, published 2026).

Like-named read-outs stand apart in the source and are kept apart here.

What all share (assay type): cell-based
Data set [1] is described as follows: Cell viability measurement (MTS), Vero cells. To be noted: monkey. Here is the method:
(§1) Experimental Example 3: Cell Viability Measurement
(§2) Vero cell line (VERO01WCB-1201, Ministry of Food and Drug Safety, Republic of Korea), Calu-3 cell line (KCLB #30055, Korea Cell Line Bank (KCLB), Republic of Korea), CellTiter 96® AQueous One Solution Cell Proliferation Assay kit (Promega, cat. #G3582), and Infinite M200 microplate reader (Tecan).
Vero cells were cultured at 37 °C and 5% CO2 in DMEM medium supplemented with 10% fetal bovine serum, 100 units/mL penicillin, and 100 μg/mL streptomycin.
(§3) Vero cells or Calu-3 cells were seeded in 96-well microplates and cultured for 24 hours until the cell confluency reached 20%. After the incubation, compounds were treated in DMSO at concentrations (1, 3, and 10 μM) to reach 0.5% v/v in each well, and reacted at 37 °C for 48 hours. Into each well of the incubated 96-well microplate, 3-(4,5-dimethylthiazol-2-yl)-5-(3-carboxymethoxyphenyl)-2-(4-sulfophenyl)-2H-tetrazolium salt (MTS) assay solution [CellTiter 96® AQueous One Solution Cell Proliferation Assay kit (Promega)] mixed with DMEM medium at a ratio of 1:5, was dispensed at 100 μL/well and incubated at 37 °C for 1 hour. The 490 nm and 690 nm absorbance was then measured using an Infinite M200 instrument.
(§4) The cell viability (also, referred to as cell survival rate) (%) by compound treatment was calculated using the following analysis method. The 690 nm background absorbance value was subtracted from the measured 490 nm absorbance value. Then, to obtain the cell viability of each test group, the viability of the DMSO-treated group that was not treated with the compound was set to 100% and then the relative viability 1 of each compound was calculated. Two to six repeated tests were performed to obtain the results, and the mean values of the results were categorized into the following ranges and shown in Table 5 below (A: 80% survived, B: 50-80% survived, N/A: not tested)

For data set [2], the system named is Severe Acute Respiratory Syndrome Coronavirus Type 2. As to the kind of experiment: microbe, parasite or virus in culture. Conditions: Vero, read-out: Virus replication inhibition efficacy.
Data set [3] has the same test system. As to the kind of experiment: microbe, parasite or virus in culture. Conditions: read-out: Virus replication inhibition efficacy.
The nature of data set [4]: Cell viability measurement (MTS), Calu-3 cells. To be noted: human. Here is the method: as §1, §2
Calu-3 cells were cultured at 37 °C and 5% CO2 in MEM medium supplemented with 10% fetal bovine serum, 2.2 g/L sodium bicarbonate, 1% 100 units/mL penicillin, and 100 μg/mL streptomycin.
as §3, §4

The mark [5] stands for this setting: 10 uM, virus strain NCCP-43344, 48 hours.
[6] abbreviates: Calu-3, 10 uM, virus strain NCCP-43344, 48 hours.
Setting [7] is: 10 uM, virus strain NCCP-43388, 48 hours.
The mark [8] stands for this setting: Calu-3, 10 uM, virus strain NCCP-43388, 48 hours.

In the case of `Clc1cc2nc(-c3cccc(Nc4ccc(-c5ccccc5)nn4)c3)[nH]c2cc1Cl` [Example 7, N-(3-(5,6-dichloro-1H-benzo[d]imidazol-2-yl)phenyl)-6-phenylpyridazin-3-amine], in data set [1], the viability at 48 h, 1 µM is above 80% and the viability at 48 h, 3 µM is above 80%. In data set [2] (setting [5]), the inhibition at 10 µM was 30 to 60%. For the same molecule, the inhibition at 10 µM in data set [3] (setting [6]) lay within 30 to 60%.

For the molecule `c1cc(Nc2ncc(-c3ccsc3)cn2)cc(-c2nc3ccccc3[nH]2)c1` [Example 164, N-[3-(1H-benzo[d]imidazol-2-yl)phenyl]-5-(3-thienyl)pyrimidin-2-amine], the inhibition at 10 µM in data set [2] (setting [7]) and in data set [3] (setting [8]) was above 60% in each case.

`FC(F)(F)c1ccc2nc(-c3cccc(Nc4ccc(-c5cncnc5)cc4)c3)[nH]c2c1` [Example 28, N-[4-(pyrimidin-5-yl)phenyl]-3-[6-(trifluoromethyl)-1H-benzo[d]imidazol-2-yl]aniline] displayed a viability at 48 h, 1 µM in data set [1] above 80%. For the same molecule, the inhibition at 10 µM in data set [2] (setting [7]) and in data set [3] (setting [8]) was above 60% in each case.

In data set [1], `FC(F)(F)c1cc2nc(-c3cccc(Nc4ccc(-c5ccccc5)nn4)c3)[nH]c2cc1Br` [Example 9, N-{3-[6-bromo-5-(trifluoromethyl)-1H-benzo[d]imidazol-2-yl]phenyl}-6-phenylpyridazin-3-amine] yielded a viability at 48 h, 1 µM above 80% and a viability at 48 h, 3 µM of 50 to 80%. The inhibition at 10 µM in data set [2] (setting [5]) lay in the range of 30 to 60%.

Consider `Fc1cccc(-c2cnc(Nc3cccc(-c4nc5ccccc5[nH]4)c3)nc2)n1` [Example 259, N-(3-(1H-benzo[d]imidazol-2-yl)phenyl)-5-(6-fluoropyridin-2-yl)pyrimidin-2-amine], for which the inhibition at 10 µM in data set [2] (setting [7]) and in data set [3] (setting [8]) was above 60% in each case.

For `FC(F)(F)c1ccc2nc(-c3cccc(Nc4ccc(-c5ncccn5)cc4)c3)[nH]c2c1` [Example 27, N-[4-(pyrimidin-2-yl)phenyl]-3-[6-(trifluoromethyl)-1H-benzo[d]imidazol-2-yl]aniline], in data set [1], the viability at 48 h, 1 µM is above 80% and the viability at 48 h, 3 µM is above 80%. In data set [2] (setting [7]), the inhibition at 10 µM was above 60%. Besides, in data set [3] (setting [8]), the inhibition at 10 µM is above 60%.

In data set [1], `c1cc(Nc2ccc(-c3cccnn3)cc2)cc(-c2nc3ccccc3[nH]2)c1` [Example 21, 3-(1H-benzo[d]imidazol-2-yl)-N-(4-(pyridazin-3-yl)phenyl)aniline] registered a viability at 48 h, 3 µM above 80% and a viability at 48 h, 10 µM of 50 to 80%. For the same molecule, in data set [4], the viability at 48 h, 1 µM was above 80%; the viability at 48 h, 3 µM lay in the range of 50 to 80%; the viability at 48 h, 10 µM lay within 50 to 80%. Besides, in data set [2] (setting [7]), the inhibition at 10 µM was above 60%. Also, in data set [3] (setting [8]), the inhibition at 10 µM is above 60%.

In data set [1], `c1ccc(-c2ccc(Nc3cccc(-c4nc5ccccc5[nH]4)c3)cc2)nc1` [Example 20, 3-(1H-benzo[d]imidazol-2-yl)-N-(4-(pyridin-2-yl)phenyl)aniline] gave a viability at 48 h, 1 µM above 80% and a viability at 48 h, 10 µM of 50 to 80%. In data set [4], the viability at 48 h, 1 µM is above 80% and the viability at 48 h, 3 µM is 50 to 80%. Also, the inhibition at 10 µM in data set [2] (setting [7]) was above 60%. Besides, in data set [3] (setting [8]), the inhibition at 10 µM was above 60%.

As for `N#Cc1ccc2nc(-c3cccc(Nc4ccc(-c5cccnn5)cc4)c3)[nH]c2c1` [Example 231, 2-(3-((4-(pyridazin-3-yl)phenyl)amino)phenyl)-1H-benzo[d]imidazole-6-carbonitrile], the inhibition at 10 µM in data set [2] (setting [7]) and in data set [3] (setting [8]) was above 60% in each case.

As to `c1cc(Nc2ncc(-c3ncco3)cn2)cc(-c2nc3ccccc3[nH]2)c1` [Example 171, N-[3-(1H-benzo[d]imidazol-2-yl)phenyl]-5-oxazol-2-yl-pyrimidin-2-amine], the inhibition at 10 µM in data set [2] (setting [7]) and in data set [3] (setting [8]) was above 60% each time.

Take `FC(F)(F)c1ccc2nc(-c3cccc(Nc4ccc(-c5cccnn5)cc4)c3)[nH]c2c1` [Example 23, N-(4-(pyridazin-3-yl)phenyl)-3-(6-(trifluoromethyl)-1H-benzo[d]imidazol-2-yl)aniline]: the viability at 48 h, 1 µM in data set [1] and in data set [4] was above 80% in each case. The viability at 48 h, 3 µM in data set [1] was above 80%; in data set [4], 50 to 80%. Further, the inhibition at 10 µM in data set [2] (setting [5]) and in data set [3] (setting [6]) was above 60% throughout.

For the molecule `Cc1ccc2nc(-c3cccc(Nc4ccc(-c5cccnn5)cc4)c3)[nH]c2c1` [Example 105, 3-(6-methyl-1H-benzo[d]imidazol-2-yl)-N-(4-pyridazin-3-ylphenyl)aniline], in data set [4], the viability at 48 h, 1 µM is above 80%; the viability at 48 h, 3 µM was in the range of 50 to 80%; the viability at 48 h, 10 µM was 50 to 80%. The inhibition at 10 µM in data set [2] (setting [7]) was above 60%. Besides, the inhibition at 10 µM in data set [3] (setting [8]) is above 60%.

Consider `Fc1cc2[nH]c(-c3cccc(Nc4ccc(-c5cccnn5)cc4)c3)nc2cc1Cl` [Example 102, 3-(5-chloro-6-fluoro-1H-benzo[d]imidazol-2-yl)-N-(4-pyridazin-3-ylphenyl)aniline], for which, in data set [4], the viability at 48 h, 1 µM is above 80%; the viability at 48 h, 3 µM is above 80%; the viability at 48 h, 10 µM was in the range of 50 to 80%. Besides, the inhibition at 10 µM in data set [2] (setting [7]) was above 60%. In data set [3] (setting [8]), the inhibition at 10 µM is above 60%.

In the case of `FC(F)(F)c1ccc2nc(-c3cccc(Nc4ncc(-c5ccccn5)cn4)c3)[nH]c2c1` [Example 83, 5-(2-pyridyl)-N-[3-[6-(trifluoromethyl)-1H-benzo[d]imidazol-2-yl]phenyl]pyrimidin-2-amine], in data set [4], the viability at 48 h, 1 µM is above 80%; the viability at 48 h, 3 µM was above 80%; the viability at 48 h, 10 µM was above 80%. Further, in data set [2] (setting [7]), the inhibition at 10 µM lay within 30 to 60%. Besides, the inhibition at 10 µM in data set [3] (setting [8]) was 30 to 60%.

With `FC(F)(F)Oc1cc2[nH]c(-c3cccc(Nc4ccc(-c5cccnn5)cc4)c3)nc2cn1` [Example 232, N-(4-(pyridazin-3-yl)phenyl)-3-(6-(trifluoromethoxy)-1H-imidazo[4,5-c]pyridin-2-yl)aniline], the inhibition at 10 µM in data set [2] (48 h) was 30 to 60%; in data set [3] (Calu-3, 48 h) it was above 60%.

As for `O=[N+]([O-])c1ccc2nc(-c3cccc(Nc4ccc(-c5cccnn5)cc4)c3)[nH]c2c1` [Example 227, 3-(6-nitro-1H-benzo[d]imidazol-2-yl)-N-(4-(pyridazin-3-yl)phenyl)aniline], the inhibition at 10 µM was 30 to 60% in data set [2] (setting [7]) and above 60% in data set [3] (setting [8]).

Turning to `c1cc(Nc2ncc(-c3ccncn3)cn2)cc(-c2nc3ccccc3[nH]2)c1` [Example 76, N-[3-(1H-benzo[d]imidazol-2-yl)phenyl]-[4,5′-bipyrimidin]-2′-amine], the inhibition at 10 µM in data set [2] (setting [7]) and in data set [3] (setting [8]) was 30 to 60% in each case.

With `Clc1ccc2nc(-c3cccc(Nc4ccc(-c5cccnn5)cc4)c3)[nH]c2c1` [Example 226, 3-(6-chloro-1H-benzo[d]imidazol-2-yl)-N-(4-(pyridazin-3-yl)phenyl)aniline], the inhibition at 10 µM in data set [2] (setting [7]) and in data set [3] (setting [8]) was above 60% each time.

In data set [1], `FC(F)(F)c1cc2nc(-c3cccc(Nc4ccc(-c5ccccc5)nn4)c3)[nH]c2cc1Cl` [Example 8, N-{3-[6-chloro-5-(trifluoromethyl)-1H-benzo[d]imidazol-2-yl]phenyl}-6-phenylpyridazin-3-amine] displayed a viability at 48 h, 1 µM above 80% and a viability at 48 h, 3 µM above 80%. For the same molecule, in data set [2] (setting [5]), the inhibition at 10 µM lay in the range of 30 to 60%. In addition, in data set [3] (setting [6]), the inhibition at 10 µM was in the range of 30 to 60%.

On to `Fc1cccc(-c2cnc(Nc3cccc(-c4nc5ccc(C(F)(F)F)cc5[nH]4)c3)nc2)n1` [Example 258, 5-(6-fluoropyridin-2-yl)-N-(3-(6-(trifluoromethyl)-1H-benzo[d]imidazol-2-yl)phenyl)pyrimidin-2-amine], for which the inhibition at 10 µM in data set [2] (setting [7]) was in the range of 30 to 60%.

In data set [4], `Cc1noc(-c2ccc3nc(-c4cccc(Nc5ccc(-c6cccnn6)cc5)c4)[nH]c3c2)n1` [Example 93, 3-(6-(3-methyl-1,2,4-oxadiazol-5-yl)-1H-benzo[d]imidazol-2-yl)-N-(4-(pyridazin-3-yl)phenyl)aniline] yielded a viability at 48 h, 1 µM above 80%; a viability at 48 h, 3 µM above 80%; a viability at 48 h, 10 µM above 80%. Besides, in data set [2] (setting [7]), the inhibition at 10 µM is 30 to 60%. In addition, the inhibition at 10 µM in data set [3] (setting [8]) is above 60%.

The term viability denotes the share of living cells, or the viability signal relative to a control. A word on the inhibition: it is the percentage by which the read-out fell short of the control.
